Data set [1] concerns sGC. Kind of data set: cGMP neuronal cell-based assay. Conditions: rat primary hippocampal neurons; 30 μM DETA-NO; 50% of high control (10 μM Compound Y); read-out: sGC-neuron Abs EC50. The procedure:
Rat primary neurons were isolated from fetuses of 18-day pregnant Sprague-Dawley females. The fetuses were collected in Hanks' balanced salt solution (HBSS) and brains were rapidly removed. The cerebral hippocampi were isolated and mechanically fragmented. Further tissue digestion was performed with 0.25% (wt/vol) trypsin solution in HBSS without Ca2+ and Mg2+ for 15 min at 37° C. After trypsination, cells were washed and resuspended in neurobasal medium supplemented with 0.5 mM L-glutamine, 12.5 uM glutamic acid, 2% B-27 and 100 U/mL penicillin, and 100 μg/mL streptomycin. Cells were plated at a density of 4×10^4 cells/well in a poly-D-lysine coated 384-well flat clear-bottom plate (Corning Cat No 354662). Cells were incubated 6-7 days at 37° C. in a humidified chamber with 5% CO2. Media was removed and cells were washed 1× with HBSS containing Ca2+ and Mg2+, and replaced with 40 uL HBSS containing 0.5 mM IBMX, and incubated for 15 minutes at 37° C. 10 uL of a 5× stock of test compounds with diethylenetriamine NONOate (DETA-NO) was added. Final concentration of DETA-NO was 30 μM. Cells were incubated for 20 min at 37° C. Medium was removed, 50 uL of ice-cold 10% acetic acid was added, and incubated for 60 minutes at 4° C. Following centrifugation at 4° C. for 5 minutes at 1000×g to pellet cell debris, the supernatant was aspirated to a clean plate and the samples were analyzed for cGMP content. cGMP concentrations were determined from each sample using LC-MS/MS.
Data were normalized to a high control using the following equation: 100*(Sample−Low Control)/(High Control−Low Control), where the low control is the average of 15 samples treated with 1% DMSO, and the high control is the average of 15 samples treated with 10 μM of the known sGC stimulator Compound Y (depicted in Example 2). Data were fit using a 4-parameter fit (log(agonist) vs. response—variable slope) using GraphPad Prism Software v.5. n=2 for all compounds. […]

A short description of data set [2]: Rat cerebrospinal fluid (CSF) pharmacokinetic properties. Conditions: male, Sprague-Dawley; for concentration at 1 h: CSF, PO 10 mg/kg in PEG400, 1 h post-dosing, read-out: CSF Conc (nM @ 1 h); for Kp uu at 1 h: PO 10 mg/kg, unbound CSF / unbound plasma. The format is in vivo. The protocol: PK in rats was determined following oral dosing. For the oral (PO) experiments, a group of 6 male Sprague-Dawley rats with an indwelling catheter placed in the cisterna magna were used. The PO group was dosed with 3 or 10 mg/kg of a compound formulated as a solution in PEG400. PO doses were administered by oral gavage and delivered to the stomach using a syringe and gavage tube. Following oral dosage administration, the gavage tube was flushed with approximately 0.5 mL of water to ensure complete delivery of the full dose.
Plasma and CSF samples were collected as follows: samples of CSF and blood were collected at 1 hour and 2 hours post-dosing. CSF samples (0.05 mL) were collected through the intracisternal catheter. Blood samples (0.25 mL) were collected through retro-orbital sampling. These samples were kept on ice until processed for plasma. Blood samples were centrifuged at 3200 rpm for 5 minutes at approximately 5° C. within 1 hour of collection. Plasma was directly transferred to a 96-well plate tube (0.125 mL). Plug caps were placed on the tubes and the tubes frozen at approximately −70° C. and stored until analysis.
Plasma was collected and analyzed for the presence of compound.
The compound in question and the internal standard were extracted from plasma and CSF by precipitation. Samples were analyzed using liquid chromatography (LC) with tandem mass spectrometric detection (MS/MS) using electrospray ionization. The standard curve range was from 1 to 1000 ng/mL.
Kp,uu is defined as the concentration ratio of unbound drug in CSF to unbound drug in plasma. Unbound drug in plasma (or free plasma concentration) is calculated by multiplying the total plasma concentration by the unbound fraction as determined by plasma protein binding. The CSF concentration is then divided by the free plasma concentration to determine the Kp,uu. (See e.g., Di et al., J. Med. Chem., 56, 2-12 (2013)).

The subject of data set [3] is rats. The data set is described as follows: TNBS - colorectal distension. Format: in vivo, rat. Conditions: Compound I-2 p.o. 10 mg/kg; 120 minutes after treatment. The protocol: TNBS. Surgery: Colonic sensitivity was induced by surgical administration of TNBS seven days before behavioral testing (D−7). Fasted (overnight) animals underwent surgery. Briefly, under anesthesia (Xylazine 10 mg/kg i.p., ketamine 60 mg/kg i.p.), injection of TNBS (50 mg/kg, 1 mL/kg) was performed into the proximal part of the colon (1 cm from the caecum). After surgery, animals returned in their home cages in a regulated environment, and were fed ad libitum until D−1 (animals were fasted 24 hours before distention). Colorectal distension: Seven days (D0) after TNBS injection, colonic sensitivity was assessed on fasted (overnight) animals by measuring the intra-colonic pressure required to induce a behavioral response during colonic distension. To perform distension, a 5-cm balloon was gently inserted into the colon of vigil animals at 10 cm from the anus and the catheter was taped to the base of the tail. […] Pain behavior was characterized by an elevation of the hind part of the animals body and a clearly visible abdominal contraction corresponding to a severe cramp. Two determinations were performed.
(§1) Testing: 120 minutes after treatment. N=4/model/test. Results are expressed for each group as a percentage of activity calculated from the mean value of the vehicle-treated animals and compared to naïve animals, control paw, or cut-off value, depending on the test.

The subject of data set [4] is rats. Kind of data set: Formalin test - score. Format: in vivo, rat. Conditions: Compound I-2 p.o. 10 mg/kg; 120 minutes after treatment. The protocol:
Formalin Test. 2.5% formalin solution was injected by subplantar route into the right hind paw. Scoring of pain behavior was performed in rats for 36 minutes every 3 minutes according to the following scores:
0=normal behavior of the injected hind limb to support the body
1=slight touching of the injected paw on the floor to lightly support or not support the body
2=total withdrawal of the injected paw
3=licking, biting or shaking of the injected paw.
as §1

In the case of `FC(F)(F)c1n[nH]c(-c2nc(Cc3cncnc3)c3ccccn23)n1` [Compound I-5], in data set [1], the concentration giving a half-maximal response (EC50) (commonly the midpoint of the concentration-response curve) was no more than 100 nM. Moreover, in data set [2], the concentration at 1 h came out at 446 nM and the Kp uu at 1 h was determined as 3.26.

Take `Fc1ccccc1Cn1nc(-c2nc(C(F)(F)F)n[nH]2)c2cccnc21` [Compound I-2]: in data set [3], the “% of activity vs. vehicle, TNBS colorectal distension” value is reported as 43%. In addition, in data set [4], the “% of activity vs. vehicle, formalin test score (early phase)” value is 61% and the “% of activity vs. vehicle, formalin test score (late phase)” value is reported as 11%. Besides, in data set [1], the half-maximal effective concentration (EC50) was no more than 100 nM. For the same compound, in data set [2], the concentration at 1 h stood at 62.9 nM and the Kp uu at 1 h came to 3.16.

Values taken from patent US11690828B2, “Treatment of CNS diseases with sGC stimulators” (Cyclerion Therapeutics, Inc., priority 2016, dated 2023).
